Test results as given in US7658937B2, “Anthraquinones and process for the preparation and method of use thereof” (Board of Trustees of Michigan State University, priority 2004, dated 2010).

Experiments:
[1] = tested on: female B. malayi adult worms; experiment: Antifilarial activity against female adult worms at 5 ppm (Example 3); format: cell-based, Brugia malayi; conditions: monitored for 20 days
Protocol: (§1) Live adult male and female B. malayi were obtained from John McCall, University of Georgia, Athens, Ga. (NIH Subcontract). Adult worms were transferred to 6 well plates (3 worms, male or female per well) containing fresh RPMI 1640 culture medium supplemented with L-glutamine and penicillin/streptomycin. Anthraquinones were dissolved separately in 100% DMSO (4mg/ml) and diluted with RPMI media to obtain a final concentration of 5 ppm. Duplicate control groups received 2.5% DMSO or no DMSO. Every 48 h, the medium from each well was removed and replaced with fresh RPMI with or without drug in DMSO. The movement and mortality of the filarial were monitored every 24 h for 20 days. All B. malayi worms in control wells were fully motile throughout the study and the worms treated with anthraquinones were dead.

B. malayi Microfilaria = experiment: Antifilarial activity against microfilaria at 5 ppm (Example 3); format: cell-based, Brugia malayi
[2] = tested on: adult female filarial (Brugia malayi) worms; experiment: Mortality and inhibition of motility of adult female filarial worms at 5 ppm (Example 2); format: cell-based; conditions: for time to 100% mortality: adult female worms
Source text: (§2) A collection of 100 adult female Brugia malayi were obtained through an NIH subcontract from Dr. John McCall, University of Georgia in order to test the efficacy of anthraquinones as antifilarial agents. Three worms per well were transferred to 6 well plates containing fresh RPMI 1640 culture medium supplemented with L-glutamine and penicillin/streptomycin. […] Duplicate control groups received 2% DMSO or no DMSO. The medium was removed and replaced with fresh RPMI with or without drug in DMSO every 48 h. The movement and viability of the adult worms were monitored every 24 h till 10 days. The B. malayi worms in control wells were fully motile till the end of 10th day and the worms treated with anthraquinones were dead.
The anthraquinones A, B, D, E, F, J, Q and R, selected randomly, were assayed against adult female filarial (Brugia malayi) worms for mortality and inhibition of motility. […] Other anthraquinones tested gave 100% mortality between 3-10 days (Table 3)

[3] = tested on: adult female and male B. malayi; experiment: Morphology of H & E stained sections of killed adult worms (FIGS. 6-9); format: cell-based, Brugia malayi; conditions: killed by 5 ppm, H & E stain
Source text: FIG. 6 is a cross-sectional view of H & E stained normal control adult female Brugia malayi. Normal duplicate intrauterine structures contains many well-formed microfilaria larvae that have not yet been released from the uterus. Magnification×400. Calibration mark indicates 100 microns in FIGS. 6-9).
FIG. 7 is a longitudinal sectional view of normal adult male B. malayi. […] Magnification×40.

[4] = tested on: male B. malayi adult worms; experiment: Antifilarial activity against male adult worms at 5 ppm (Example 3); format: cell-based, Brugia malayi; conditions: monitored for 20 days
Protocol: as §1

B. Malayi adult worms = experiment: Dose response of active anthraquinones against adult worms (50 to 3.12 ppm); format: cell-based, Brugia malayi
Source text: as §2
Te assay was repeated with anthraquinones B, F, J and R since they killed the worms quickly compared to the other anthraquinones tested.

[5] = tested on: human filarial parasite, B.malayi; experiment: Activity of daylily anthraquinone against human filarial parasite; design: species or system Brugia malayi
Schistosoma mansoni = conditions: naturally occurring anthraquinone from daylily roots; Cichewicz et al. 2002; cited from earlier work

| SMILES | 100% Mortality of female B. malayi [1] [days] | 100% Mortality of Microfilaria (Days)* (B. malayi Microfilaria) | 100% Mortality of B. Malayi ([2]; adult worms) [days] | further results |
| --- | --- | --- | --- | --- |
| O=C1c2cc(O)c(O)cc2C(=O)c2c(O)cccc21 [Anthraquinone G, 2,3,5-Trihydroxy anthraquinone] | 5 | 3 days | 5 |  |
| Cc1cc2c(c(O)c1O)C(=O)c1ccccc1C2=O [Anthraquinone B, 1,2-Dihydroxy-3-methyl anthraquinone] | 5 | 3 days | 5 | morphology of adult female B. malayi, cross-section [3]: disruption of the stable cuticle and hypodermal regions, along with disorganization of the intrauterine microfilariae; morphology of adult male B. malayi, longitudinal section [3]: marked loss of cellularity in hypodermal and deeper structures; time to 100% mortality [2]: 24 h; 100% Mortality of male B. malayi [4]: 6 days; 100% Mortality of B. Malayi (B. Malayi adult worms; 3.125 ppm): 6 days; 100% Mortality of B. Malayi (B. Malayi adult worms; 6.25 ppm): 5 days; 100% Mortality of B. Malayi (B. Malayi adult worms; 12.5 ppm): 4 days; 100% Mortality of B. Malayi (B. Malayi adult worms; 25 ppm): 3 days; 100% Mortality of B. Malayi (B. Malayi adult worms; 50 ppm): 1 days |
| COc1cc2c(c(C)c1OC)C(=O)c1c(O)cccc1C2=O [Anthraquinone S, 1-Methyl-2,3-dimethoxy-8-hydroxy anthraquinone] | 9 | No Mortality | 9 | activity ([2]; adult worms, at 9 days): 50% |
| O=C1c2cccc(O)c2C(=O)c2c(O)ccc(O)c21 [Anthraquinone M, 1,4,8-Trihydroxy anthraquinone] | 9 | 5 days | 9 |  |
| O=C1c2cc(O)c(O)c(O)c2C(=O)c2cccc(O)c21 [Anthraquinone N, 1,2,3,-5-Tetrahydroxy anthraquinone] | 5 | 3 days | 5 | 100% Mortality of male B. malayi [4]: 6 days |
| COc1c(C)cc2c(c1O)C(=O)c1c(O)cccc1C2=O [Anthraquinone Q, 1,8-Dihydroxy-2-methoxy-3-methyl anthraquinone] |  | No Mortality |  | 100% Mortality of female B. malayi (Days) [1]: No Mortality; 100% Mortality of B. malayi (Days) ([2]; adult worms): No activity |
| O=C1c2ccccc2C(=O)c2c1cc(O)c(O)c2O [Anthraquinone F, 1,2,3-Trihydroxy anthraquinone] | 5 | 3 days | 5 | 100% Mortality of B. Malayi (B. Malayi adult worms; 3.125 ppm): 5 days; 100% Mortality of B. Malayi (B. Malayi adult worms; 6.25 ppm): 5 days; 100% Mortality of B. Malayi (B. Malayi adult worms; 12.5 ppm): 4 days; 100% Mortality of B. Malayi (B. Malayi adult worms; 25 ppm): 4 days; 100% Mortality of B. Malayi (B. Malayi adult worms; 50 ppm): 2 days |
| O=C1c2cc(O)cc(O)c2C(=O)c2cccc(O)c21 [Anthraquinone L, 1,3,5-Trihydroxy anthraquinone] | 7 | 3 days | 7 |  |
| Cc1cc2c(c(O)c1O)C(=O)c1c(O)cccc1C2=O [Anthraquinone J, 1,2,8-Trihydroxy-3-methyl anthraquinone] | 5 | 3 days | 5 | activity against human filarial parasite B.malayi [5]: active; time to 100% mortality [2]: 48 h; 100% Mortality of male B. malayi [4]: 5 days; activity against Schistosoma mansoni (Schistosoma mansoni): significant activity; 100% Mortality of B. malayi (Days) (B. Malayi adult worms; 3.125 ppm): No Mortality; 100% Mortality of B. Malayi (B. Malayi adult worms; 6.25 ppm): 5 days; 100% Mortality of B. Malayi (B. Malayi adult worms; 12.5 ppm): 4 days; 100% Mortality of B. Malayi (B. Malayi adult worms; 25 ppm): 3 days; 100% Mortality of B. Malayi (B. Malayi adult worms; 50 ppm): 2 days |
| COc1c(C)cc2c(c1OC)C(=O)c1ccccc1C2=O [Anthraquinone P, 1,2-Dimethoxy-3-methyl anthraquinone] | 11 | No Morality | 11 |  |
| O=C1c2ccccc2C(=O)c2c1ccc(O)c2O [Anthraquinone A, 1,2-Dihydroxy anthraquinone] | 5 | 3 days | 11 |  |
| COc1cccc2c1C(=O)c1c(cc(C)c(OC)c1O)C2=O [Anthraquinone R, 1-Hydroxy-2,8-dimethoxy-3-methyl anthraquinone] | 7 | No Mortality | 7 | time to 100% mortality [2]: 24 h; 100% Mortality of B. malayi (Days) (B. Malayi adult worms; 3.125 ppm): No Mortality; 100% Mortality of B. Malayi (B. Malayi adult worms; 6.25 ppm): 8 days; 100% Mortality of B. Malayi (B. Malayi adult worms; 12.5 ppm): 4 days; 100% Mortality of B. Malayi (B. Malayi adult worms; 25 ppm): 2 days; 100% Mortality of B. Malayi (B. Malayi adult worms; 50 ppm): 1 days |
| CCCSc1ccc2nc(NC(=O)OC)[nH]c2c1 [Albendazole, reference compound] | 16 | No Mortality | 16 | 100% Mortality of male B. malayi [4]: 9 days |
| Cc1c(O)c(O)cc2c1C(=O)c1c(O)cccc1C2=O [Anthraquinone K, 1-Methyl-2,3,8-trihydroxy anthraquinone] | 3 | 1 days | 3 | 100% Mortality of male B. malayi [4]: 5 days |
| O=C1c2ccccc2C(=O)c2c(O)cc(O)cc21 [Anthraquinone D, 1,3-Dihydroxy anthraquinone] |  | No Mortality |  | 100% Mortality of female B. malayi (Days) [1]: No Mortality; 100% Mortality of B. malayi (Days) ([2]; adult worms): No activity |
| Cc1c(O)c(O)cc2c1C(=O)c1ccccc1C2=O [Anthraquinone C, 1-Methyl-2,3-dihydroxy anthraquinone] | 7 | 3 days | 7 |  |
| O=C1c2ccc(O)c(O)c2C(=O)c2cccc(O)c21 [Anthraquinone H, 1,2,5-Trihydroxy anthraquinone] | 9 | 3 days | 9 |  |
| O=C1c2cccc(O)c2C(=O)c2c1ccc(O)c2O [Anthraquinone I, 1,2,8-Trihydroxy anthraquinone] | 14 | 3 days | 14 |  |
| O=C1c2ccccc2C(=O)c2c(O)ccc(O)c21 [Anthraquinone E, 1,4-Dihydroxy anthraquinone] | 10 | No Mortality | 10 |  |
| COc1c(C)cc2c(c1O)C(=O)c1ccccc1C2=O [Anthraquinone O, 1-Hydroxy-2-methoxy-3-methyl anthraquinone] |  | No Mortality |  | 100% Mortality of female B. malayi (Days) [1]: No Mortality; 100% Mortality of B. malayi (Days) ([2]; adult worms): No activity |
